Assay [1] deals with Sodium-dependent serotonin transporter (Homo sapiens, UniProt P31645). The assay is classed as cell-based, HEK293.
Assay [2] concerns the target Sodium-dependent dopamine transporter (Homo sapiens, UniProt Q01959). Briefly: Inhibition of dopamine uptake at human DAT in human HEK293 cells. The assay is classed as cell-based.
Assay [3] addresses Sodium-dependent noradrenaline transporter (Homo sapiens, UniProt P23975). Nature of the assay: Inhibition of norepinephrine uptake at human NET in human HEK293 cells. The format is cell-based.
Assay [4] deals with Cytochrome P450 2D6 (Homo sapiens, UniProt P10635). Briefly: Inhibition of CYP2D6. The format is ADME.
Assay [5] addresses 5-hydroxytryptamine receptor 2B (Homo sapiens) (UniProt P41595). Briefly: Binding affinity to 5HT2B.

SMILES strings stand for the structures.

Chain of Sodium-dependent noradrenaline transporter (P23975 whole entry): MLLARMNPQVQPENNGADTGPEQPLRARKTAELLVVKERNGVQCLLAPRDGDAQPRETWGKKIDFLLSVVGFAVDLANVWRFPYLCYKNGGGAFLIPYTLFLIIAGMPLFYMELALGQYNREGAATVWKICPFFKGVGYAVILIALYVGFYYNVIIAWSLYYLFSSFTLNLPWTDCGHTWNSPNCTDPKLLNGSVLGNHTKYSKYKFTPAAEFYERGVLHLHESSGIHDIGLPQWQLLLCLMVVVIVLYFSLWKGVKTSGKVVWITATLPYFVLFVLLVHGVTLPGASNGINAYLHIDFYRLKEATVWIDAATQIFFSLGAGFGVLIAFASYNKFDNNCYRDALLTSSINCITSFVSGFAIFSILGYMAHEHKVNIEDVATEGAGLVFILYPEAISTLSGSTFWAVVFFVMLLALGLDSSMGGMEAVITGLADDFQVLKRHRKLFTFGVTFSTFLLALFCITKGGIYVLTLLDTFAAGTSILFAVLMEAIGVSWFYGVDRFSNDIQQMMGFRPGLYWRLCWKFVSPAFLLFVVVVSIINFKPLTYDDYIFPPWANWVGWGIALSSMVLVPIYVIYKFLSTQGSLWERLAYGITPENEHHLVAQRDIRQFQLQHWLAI
Chain of Sodium-dependent dopamine transporter (Q01959 whole entry): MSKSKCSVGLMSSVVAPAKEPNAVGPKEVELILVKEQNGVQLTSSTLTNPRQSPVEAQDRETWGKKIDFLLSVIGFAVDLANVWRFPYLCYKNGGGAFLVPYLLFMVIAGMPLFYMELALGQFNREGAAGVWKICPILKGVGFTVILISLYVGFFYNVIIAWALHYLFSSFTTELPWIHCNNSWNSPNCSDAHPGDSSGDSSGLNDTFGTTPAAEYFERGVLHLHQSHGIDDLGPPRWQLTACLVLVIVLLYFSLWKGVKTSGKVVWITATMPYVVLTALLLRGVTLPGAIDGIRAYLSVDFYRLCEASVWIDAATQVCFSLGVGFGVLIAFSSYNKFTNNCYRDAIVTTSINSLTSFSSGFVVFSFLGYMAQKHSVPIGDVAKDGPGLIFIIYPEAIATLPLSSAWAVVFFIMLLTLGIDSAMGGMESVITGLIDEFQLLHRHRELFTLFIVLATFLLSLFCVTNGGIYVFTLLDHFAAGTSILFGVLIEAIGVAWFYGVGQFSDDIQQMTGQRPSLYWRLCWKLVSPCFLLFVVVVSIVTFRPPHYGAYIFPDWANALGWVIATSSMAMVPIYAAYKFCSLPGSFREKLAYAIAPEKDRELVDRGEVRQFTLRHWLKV
Chain of Sodium-dependent serotonin transporter (P31645 whole entry): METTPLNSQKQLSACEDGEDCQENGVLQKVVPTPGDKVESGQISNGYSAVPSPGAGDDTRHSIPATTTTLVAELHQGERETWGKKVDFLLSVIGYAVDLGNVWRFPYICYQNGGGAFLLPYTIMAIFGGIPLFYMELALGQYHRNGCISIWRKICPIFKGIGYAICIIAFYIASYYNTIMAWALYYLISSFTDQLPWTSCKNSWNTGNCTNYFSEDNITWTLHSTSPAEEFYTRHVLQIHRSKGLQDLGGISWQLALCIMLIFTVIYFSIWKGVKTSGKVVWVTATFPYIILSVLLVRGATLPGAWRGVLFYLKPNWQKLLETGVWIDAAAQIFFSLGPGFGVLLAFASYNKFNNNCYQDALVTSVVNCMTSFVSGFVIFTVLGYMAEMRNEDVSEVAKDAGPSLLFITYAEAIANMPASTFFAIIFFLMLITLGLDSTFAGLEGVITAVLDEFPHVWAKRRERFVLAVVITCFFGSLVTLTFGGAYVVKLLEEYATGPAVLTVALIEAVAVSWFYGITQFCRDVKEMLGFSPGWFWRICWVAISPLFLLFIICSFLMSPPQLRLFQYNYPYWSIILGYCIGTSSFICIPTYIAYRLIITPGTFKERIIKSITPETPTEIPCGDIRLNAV
Chain of 5-hydroxytryptamine receptor 2B (Homo sapiens) (P41595 whole entry): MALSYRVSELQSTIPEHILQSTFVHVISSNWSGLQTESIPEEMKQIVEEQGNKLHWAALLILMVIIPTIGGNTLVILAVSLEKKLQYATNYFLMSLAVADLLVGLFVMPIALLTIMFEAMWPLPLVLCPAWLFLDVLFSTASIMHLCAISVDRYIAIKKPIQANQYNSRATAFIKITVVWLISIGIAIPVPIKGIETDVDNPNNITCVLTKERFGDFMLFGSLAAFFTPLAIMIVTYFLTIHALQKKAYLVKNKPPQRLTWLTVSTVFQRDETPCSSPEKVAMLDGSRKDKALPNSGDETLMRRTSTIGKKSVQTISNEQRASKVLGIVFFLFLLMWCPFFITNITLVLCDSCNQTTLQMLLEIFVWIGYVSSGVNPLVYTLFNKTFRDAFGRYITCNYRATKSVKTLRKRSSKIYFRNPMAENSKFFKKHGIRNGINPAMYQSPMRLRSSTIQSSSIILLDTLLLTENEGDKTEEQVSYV
Chain of Cytochrome P450 2D6 (P10635 whole entry): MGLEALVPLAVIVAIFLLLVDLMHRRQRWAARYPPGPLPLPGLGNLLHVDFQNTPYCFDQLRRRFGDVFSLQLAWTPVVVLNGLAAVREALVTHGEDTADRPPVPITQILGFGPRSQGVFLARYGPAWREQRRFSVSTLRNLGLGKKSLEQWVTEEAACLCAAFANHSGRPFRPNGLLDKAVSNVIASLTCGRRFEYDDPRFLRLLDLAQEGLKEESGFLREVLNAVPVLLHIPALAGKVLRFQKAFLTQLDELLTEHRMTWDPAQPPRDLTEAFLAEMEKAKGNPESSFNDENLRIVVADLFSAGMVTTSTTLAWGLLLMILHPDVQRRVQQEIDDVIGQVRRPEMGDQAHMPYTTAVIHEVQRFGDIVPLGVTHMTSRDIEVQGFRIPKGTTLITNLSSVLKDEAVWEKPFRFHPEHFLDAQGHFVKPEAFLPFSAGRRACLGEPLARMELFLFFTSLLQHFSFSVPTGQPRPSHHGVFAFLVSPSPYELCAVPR

As for `CN[C@@H]1Cc2ccccc2[C@H](Oc2ccccc2C)C1`, the figures for the IC50 in assay [1], in assay [2] and in assay [3] were 3 µM, more than 10 µM and 0.19 µM, respectively.
Take `CN[C@H]1Cc2ccccc2[C@H](Oc2ccccc2C)C1`: the IC50 in assay [1] is 0.59 µM; in assay [4], 0.25 µM; in assay [2] it was 8 µM; in assay [3], 0.008 µM. This compound also gave an Activity in assay [5] of 250 nM.
For `COc1ccc(O[C@H]2C[C@@H](N(C)C)c3ccccc32)cc1`, the IC50 was 0.13 µM in assay [1], more than 10 µM in assay [2] and 6 µM in assay [3].
The matching figures for `Cc1ccccc1O[C@@H]1C[C@@H](N(C)C)Cc2ccccc21`: 0.7 µM, more than 10 µM and 0.43 µM.
The matching figures for `Cc1ccccc1O[C@H]1C[C@H](N(C)C)c2ccccc21`: 0.15 µM, 3.4 µM and 0.15 µM.
Turning to `CN[C@@H]1Cc2ccccc2[C@@H](Oc2ccccc2C)C1`, the values for the IC50 in assay [1], in assay [2] and in assay [3] were 3.3 µM, 4.5 µM and 0.2 µM, respectively.
In the same order, the values of `CN[C@H]1Cc2ccccc2[C@@H](Oc2ccccc2C)C1` are 1.1 µM, 6 µM and 0.16 µM.
In the same order, the values of `CN[C@@H]1C[C@H](Oc2ccccc2)c2ccccc21` (relative stereo) are more than 10 µM, 5 µM and 2 µM.
In the case of `CN[C@@H]1C[C@H](Oc2ccccc2C)c2ccccc21` (relative stereo), the IC50 in assay [1] turned out to be 1.4 µM; in assay [2] it was 4.6 µM; in assay [3] it was 0.66 µM.
The matching figures for `CN[C@@H]1CC[C@H](Oc2ccccc2C)c2ccccc21` (relative stereo): 5 µM, 1 µM and 0.52 µM.
In the same order, the values of `Cc1ccccc1O[C@H]1CC[C@@H](N)c2ccccc21` (relative stereo) are 2.3 µM, 1 µM and 0.63 µM.
In the same order, the values of `Cc1ccccc1O[C@@H]1CC[C@@H](N)c2ccccc21` (relative stereo) are more than 10 µM, 1 µM and 0.95 µM.
Consider `Cc1ccccc1O[C@H]1C[C@H](N)c2ccccc21` (relative stereo), for which the IC50 is 10 µM in assay [1], 0.6 µM in assay [2] and 0.84 µM in assay [3].
In the same order, the values of `CN[C@H]1C[C@H](Oc2ccccc2C)c2ccccc21` (relative stereo) are 0.37 µM, 0.18 µM and 0.072 µM.
The matching figures for `CCN[C@@H]1C[C@H](Oc2ccccc2C)c2ccccc21` (relative stereo): 8 µM, 2.5 µM and 3 µM.
The matching figures for `CCN(CC)[C@@H]1C[C@H](Oc2ccccc2C)c2ccccc21` (relative stereo): 3 µM, 2.5 µM and 2 µM.
As to `Cc1ccccc1O[C@H]1C[C@@H](N(C)C(C)C)c2ccccc21` (relative stereo), the IC50 was more than 10 µM in assay [1], more than 10 µM in assay [2] and 1.1 µM in assay [3].
Take `CN(C)[C@@H]1C[C@H](Oc2ccc(Cl)cc2)c2ccccc21` (relative stereo): the IC50 in assay [1] turned out to be 0.05 µM; in assay [2], 7 µM; in assay [3] it was 1.6 µM.
In the same order, the values of `COc1ccccc1O[C@H]1C[C@@H](N(C)C)c2ccccc21` (relative stereo) are 3.5 µM, more than 10 µM and 3 µM.
Regarding `CN[C@@H]1C[C@H](Oc2ccc(Cl)cc2)c2ccccc21` (relative stereo), the IC50 stood at 0.32 µM in assay [1], 4 µM in assay [2] and 4 µM in assay [3].
For the compound `N[C@@H]1C[C@H](Oc2ccc(Cl)cc2)c2ccccc21` (relative stereo), the half-inhibitory concentration (IC50) came to 9 µM in assay [1], 2.4 µM in assay [2] and 4 µM in assay [3].
The matching figures for `CN(C)[C@@H]1C[C@H](Oc2ccccc2)c2ccccc21` (relative stereo): 2 µM, more than 10 µM and 0.8 µM.
In the same order, the values of `Cc1ccccc1O[C@H]1C[C@@H](N(C)C)c2ccccc21` (relative stereo) are 0.3 µM, 10 µM and 0.15 µM.
The matching figures for `N[C@@H]1C[C@H](Oc2ccccc2)c2ccccc21` (relative stereo): more than 10 µM, 2 µM and 5 µM.
Turning to `CNCCC(Oc1ccccc1OC)c1ccccc1` (stereo not given) [NISOXETINE], the IC50 in assay [1] amounted to 1.4 µM.

The record behind these values is ChEMBL document CHEMBL1157521, “Discovery of a potent, selective, and less flexible selective norepinephrine reuptake inhibitor (sNRI)” (Bioorg Med Chem Lett, 2008).
